Data taken from EP3820879B1, “PHOSPHORUS-CONTAINING PRODRUGS OF GEMCITABINE” (Changchun Changcheng Pharmaceutical Technology Co., LTD, priority 2018, dated 2020).

Assay: Mouse pharmacokinetic study: liver concentrations of dFdC and dFdU at 2h
Type: in vivo, C57BL/6 mice
Conditions: i.v., Gemcitabine 15 mg/kg or Compound 4 at equivalent dose, Fig. 2
Procedure: C57BL/6 mice used in this experiment were purchased from Beijing Vital River Laboratory Animal Technology Co., Ltd., and male mice with a body weight in the range of 16~19 g were tested for administration. The animals were housed with appropriate air conditions (temperature: 20~25 °C; humidity: 40%~70%; light/dark cycle: 12 hours), and were provided with the food and water ad lib.
The solution media for IV administration were DMSO: 30% solutol HS-15:saline = 10:10:80 (v/v/v). Test substances were dissolved in the media to obtain a clear solution, and filtered through PTFE to get a colorless clear solution for IV administration.
The solution media for oral administration were DMSO: 30% solutol HS-15:saline = 10:10:80 (v/v/v). […]
The pharmacokinetic (PK) profile of liver-targeted gemcitabine (dFdC) prodrug according to Formula I (i.e., Compound 4) was evaluated in male […] mice following intravenous administration (i.v.) at an equivalent dose to 15 mg/kg of Gemcitabine or following oral administration (PO or i.g.) at a dose of 80 mg/kg.
Blood samples of designated animals (n = 3/time point/compound) were taken at 0.083, 0.25, 0.5, 1, 2, 4, and 8 hours following i.v. administration, and at 0.25, 0.5, 1, 2, 4, 8 and 24 hours following PO administration, respectively. […] Pharmacokinetic parameters were calculated using WinNonlin software (Pharsight Corp., Mountain View, CA).

- dFdC levels in the liver: no detectable dFdC levels
- dFdU levels in the liver: significant levels of dFdU
SMILES: Nc1ccn([C@@H]2O[C@H](CO)[C@@H](O)C2(F)F)c(=O)n1 [Gemcitabine, 2',2'-difluoro-2'-deoxycytidine]
